Assay results published in publication PMC13201158, “A generative artificial intelligence approach for peptide antibiotic optimization” (Nature Machine Intelligence, 2026).
No end group written: not given here.

Assays:
A. baumannii ATCC 19606 [1] = assay: Cytoplasmic membrane depolarization assay (DiSC3-5); format: cell-based, Acinetobacter baumannii; conditions: A. baumannii ATCC 19606, peptides at their MIC, 60 min; compared with polymyxin B and levofloxacin
Protocol: The cytoplasmic membrane depolarization assay was performed using the membrane-potential-sensitive dye DiSC3-5. A. baumannii ATCC 19606 in the mid-logarithmic phase were washed and resuspended at 0.05 OD ml^−1 (optical value at 600 nm) in HEPES buffer (pH 7.2) containing 20 mmol l^−1 of glucose and 0.1 mol l^−1 of KCl. DiSC3-5 (20 μmol l^−1) was added to the bacterial suspension (100 μl per well) for 15 min to stabilize the fluorescence, which indicates the incorporation of the dye into the bacterial membrane, and then the peptides were mixed 1:1 with the bacteria to a final concentration corresponding to their MIC values. Membrane depolarization was then followed by reading changes in the fluorescence (λex = 622 nm, λem = 670 nm) over time for 60 min. The relative fluorescence was calculated using the untreated control (buffer + bacteria + fluorescent dye) and polymyxin B (positive control) as baselines and the following equation was applied to reflect the percentage of difference between the baselines and the sample: Percentagedifference=100×(fluorescencesample−fluorescenceuntreatedcontrol)/fluorescenceuntreatedcontrol.

A. baumannii ATCC 19606 [2] = format: cell-based, Acinetobacter baumannii; conditions: ATCC 19606, 24 h
Source text: In this study, we used the following pathogenic bacterial strains: A. baumannii ATCC 19606, E. coli ATCC 11775, E. coli AIC221 [E. coli MG1655 phnE_2::FRT (control strain for AIC 222)], E. coli AIC222 [E. coli MG1655 pmrA53 phnE_2::FRT (polymyxin resistant; colistin-resistant strain)], K. pneumoniae ATCC 13883, P. aeruginosa PAO1, P. aeruginosa PA14, Staphylococcus aureus ATCC 12600, S. aureus ATCC BAA-1556 (methicillin-resistant strain), Enterococcus faecalis ATCC 700802 (vancomycin-resistant strain), and Enterococcus faecium ATCC 700221 (vancomycin-resistant strain). Pseudomonas Isolation (P. aeruginosa strains) agar plates were exclusively used in the case of Pseudomonas species. All the other pathogens were grown in Luria–Bertani (LB) broth and on LB agar. In all the experiments, bacteria were inoculated from one-isolated colony and grown overnight (16 h) in a liquid medium at 37 °C. On the following day, inoculums were diluted 1:100 in fresh media and incubated at 37 °C to mid-logarithmic phase.
Broth microdilution assays were conducted to establish the MIC for each peptide[53]–[55]. Peptides were added to untreated polystyrene 96-well microtitre plates and serially diluted twofold in sterile water, ranging from 0 to 64 μmol l^−1. A bacterial inoculum at a concentration of 10^6 CFU ml^−1 in LB medium was then mixed in a 1:1 ratio with the peptide solution. […] Each assay was performed in three independent replicates.

[3] = system: human embryonic kidney (HEK293T) cells; assay: Cytotoxicity assay (MTT); format: cell-based; conditions: 24 h exposure, concentration range tested 4–64 μmol l^−1 (method: 8–128 μmol l^−1), three biological replicates
Protocol: One day before the experiment, an aliquot of 100 μl of the cells at 50,000 cells ml^−1 was seeded into each well of the cell-treated 96-well plates used in the experiment. The attached HEK293T cells were then exposed to increasing concentrations of the peptides (8–128 μmol l^−1) for 24 h. After the incubation period, we performed the 3-(4,5-dimethylthiazol-2-yl)-2,5-diphenyltetrazolium bromide tetrazolium reduction assay (MTT assay)[55]. The MTT reagent was dissolved at 0.5 mg ml^−1 in the medium without phenol red and was used to replace cell culture supernatants containing the peptides (100 μl per well). The samples were incubated for 4 h at 37 °C in a humidified atmosphere containing 5% CO2, yielding the insoluble formazan salt. The resulting salts were then resuspended in hydrochloric acid (0.04 mol l^−1) in anhydrous isopropanol and quantified by spectrophotometric measurements of absorbance at 570 nm. All assays were done as three biological replicates.

Sequence: HKIKINTIKLKIKLKI [Lophiosin-1-3]
- cytoplasmic membrane depolarization (DiSC3-5 fluorescence) (A. baumannii ATCC 19606 [1]): effective depolarizers

Sequence: IASLHARSIARLLKRWINVHQGLGLKW [Mammuthusin-2-7]
- cytoplasmic membrane depolarization (DiSC3-5 fluorescence) (A. baumannii ATCC 19606 [1]): highest depolarization activity within its family

Sequence: KRKRGLKLATALSLNNKF [Mylodonin-2]
- MIC, A. baumannii ATCC 19606 (A. baumannii ATCC 19606 [2]): 64 µM

Sequence: KTLKIIRLLF [Mammuthusin-3]
- MIC, A. baumannii ATCC 19606 (A. baumannii ATCC 19606 [2]): 32 µM

Sequence: LRIKNHWIHFRVLAKALW [Hesperelin-3-9]
- cytotoxicity against HEK293T cells [3]: generally non-toxic, except for hesperelin-3-9

Sequence: RNLVRWVAGLKLKKKVIKIKVGIGRWANIK [Hydrodamin-3-9]
- MIC, A. baumannii ATCC 19606 (A. baumannii ATCC 19606 [2]): 8 µM
